Test results from patent US20050069907A1, “Methods for using double-mutant RNA polymerases with reduced discrimination between non-canonical and canonical nucleoside triphosphates” (priority 2002, published 2005).

Assays:
Type in all cases: biochemical
[1] = system: poly(dT); assay: Apparent miscoding on homopolymeric template poly(dT)
Protocol: (§1) Transcription reactions: Transcription reactions were carried out in 40 mM Tris-Cl pH 8.0, 15 mM MgCl2, and 5 mM DTT or 20 mM Manganese Citrate pH 8.0, 5 mM DTT at 37° C. Template, polymerase, and NTP concentrations were as indicated in the legends to the figures and tables. Relative activity determinations were made by taking 4 μl aliquots of reactions at 5, 10, and 20 minute time points and spotting on to DE81 filter paper. Unincorporated nucleotides were separated from incorporated nucleotides by washing the filter paper with 0.5 M KH2PO4 pH 7.0 and retained radioactive nucleotide was quantitated with a Molecular Dynamics phosphorimager. To evaluate rNTP/dNTP selectivity, reactions were run with 4 rNTPs and pT75 as template and α-P^32 rNTPs or α-P^32 dNTPs were used to label the transcripts. The relative rate of incorporation of an rNTP vs. its cognate dNTP was determined from the relative percentages of labeled rNTP vs. dNTP incorporated into DE81 retainable RNA at 5, 10, and 20 minute time points. Apparent miscoding frequencies were determined similarly, though in this instance the template was a single-stranded homopolymer and the reaction contained the complementary unlabeled rNTP, and complementary α-P^32 rNTP or one of the 3 non-complementary α-P^32 rNTPs. The relative percentages of labeled complementary vs. non-complementary rNTPs incorporated at 5, 10 and 20 minute time points gave an apparent miscoding rate. The rNTP/dNTP selectivity assay was used to test the following T7 RNAP mutants for effects on substrate discrimination: D537S, D537E, S539A, R5S1S, D552S, R627S, K631S, L637A, Y639S, Y639F, Y639A, G640A, F644A, G645A, Q649S, […], H811S, H811A, D812A, D812E, D812S, D812N, D879E+ΔF882+ΔA883, D879E+A881T+ΔA883, D879E+F884+A885, D879E+F882Y, D879E+ΔA883, D879E+F882W, D879E.
(§2) An increase in miscoding would be reflected in an increase in the rate of incorporation of the non-complementary NTP into RNA.
(§3) Numbers are averages from 2 experiments and reflect the ratio of the percentages of labeled rNTPs incorporated into RNA in reactions in which unlabeled complementary rNTPs were in great excess (0.5 mM) to labeled complementary or non-complementary rNTPs. Templates were at 0.1 mg/ml. Polymerases were at 10^−8 M in Mg^2+ buffer and 10^−7 M in Mn^2+ buffer.
(§4) *The upper number refers to results obtained in Mg^2+ buffer, the lower number to results in Mn^2+ buffer. n.d.: G640A, Y639A, Y639S were poorly active in Mn^2+ buffer, or on poly(dT) under all conditions.

[2] = system: supercoiled pT75; assay: Kinetic constants (Km, kcat) with rNTPs or dNTPs
Excerpt: 1. One first determines the Km and the kcat for each enzyme (mutant and wild-type) using the non-canonical nucleotide as a substrate and using the canonical nucleotide as a substrate, as was described previously (Patra, et al., 1992). The value “Km” expresses how readily the enzyme will bind the substrate (a larger Km implies weaker binding) and “kcat” expresses the rapidity with which the substrate, once bound by the enzyme, is reacted upon.
2. One next calculates the numerical value for kcat/Km for each enzyme and for each substrate. By broad scientific consensus, the specificity of an enzyme for a substrate is felt to be most suitably expressed by this ratio.
3. For each enzyme, one then calculates the numerical value obtained by using the value of kcat/Km for the canonical substrate in the numerator and kcat/Km for the non-canonical substrate in the denominator. This number indicates how much a given enzyme discriminates between the two substrates. […] If this value is greater than 1, then the enzyme discriminates by that factor between the two substrates; for example, if the value is 100, then the enzyme discriminates by a factor of 100 in favor of the canonical substrate compared to the non-canonical substrate. Similarly, a value less than 1 means that the enzyme discriminates in favor of the non-canonical substrate over the canonical substrate.
4. Finally, one compares the numerical value calculated in step 3 above for the wild-type (W.T.) enzyme with the value calculated in step 3 for the mutant enzyme. If the value calculated for the mutant enzyme is less than the value calculated for the wild-type enzyme, then the mutant enzyme “has a reduced discrimination for the non-canonical substrate compared to the wild-type enzyme.” For example, if the values calculated in step 3 are 100 for the wild-type enzyme and 10 for the mutant enzyme, then the discrimination of the mutant enzyme in favor of the canonical substrate (or against the non-canonical substrate) is reduced 10-fold compared to the discrimination of the wild-type enzyme.
Determination of NTP Km and kcat was as described previously (Patra, et al., 1992).
The increased utilization of dNTPs by Y639F is due to both a decreased Km and an increased kcat for dNTPs: The Km and kcat of the W.T. and Y639F polymerases with rATP, rITP and 5 different dNTPs were measured (see, Table VI).

[3] = system: poly(dC); assay: Apparent miscoding on homopolymeric template poly(dC); details: poly(dC)
Protocol: as §1, §2, §3, §4

[4] = system: poly(rC); assay: Activity on an RNA (poly(rC)) template
Protocol: T7 RNAP as a reverse transcriptase or RNA replicase which initiates de novo: It has been reported that T7 RNAP can use both RNA and DNA templates (Konarska and Sharp, 1989). Therefore, it was determined if the Y639F mutant would use dNTPs when transcribing an RNA template (poly(rC), see Table IV).
Numbers give mean and range from 3 experiments. Template was at 0.2 mg/ml, polymerases at 10^−6 M. Labeling NTPs were α-P^32 rGTP, α-P^32 dGTP.

[5] = rATP, ranges from 3 experiments
[6] = .5 mM GTP, mean and range from 3 experiments

Substance | Increase in miscoding rates in Mn^2+ buffer, on average [1] | Relative rate of incorporation ATP/CTP ([1]; Mg^2+ buffer) | Relative rate of incorporation ATP/GTP ([1]; Mg^2+ buffer) | Relative rate of incorporation ATP/UTP ([1]; Mg^2+ buffer) | Relative rate of incorporation ATP/CTP ([1]; Mn^2+ buffer) | Relative rate of incorporation ATP/GTP ([1]; Mn^2+ buffer) | Relative rate of incorporation ATP/UTP ([1]; Mn^2+ buffer) | Discrimination rNTPs vs. dNTPs: average kcat/Km of four rNTPs over average kcat/Km of four dNTPs [2] | Kcat ([2]; DTTP) | Km ([2]; DTTP) | Kcat ([2]; dATP) | Km ([2]; dATP) | Kcat ([2]; dCTP) | Km ([2]; dCTP) | Kcat ([2]; dGTP) | Km ([2]; dGTP) | Kcat ([2]; dUTP) | Km ([2]; dUTP) | Kcat ([2]; rATP) | Km [2, 5] | also measured
Y639F: T7 RNAP with wild-type tyrosine at position 639 substituted by phenylalanine | ~5 fold | >94 | 94 | 94 | 60 | 27 | 20 | about 6 fold | 70 to 110 s⁻¹ | 38 to 59 µM | 50 to 70 s⁻¹ | 200 to 350 µM | 50 to 90 s⁻¹ | 920 to 1600 µM | 30 to 50 s⁻¹ | 185 to 264 µM | 70 to 130 s⁻¹ | 52 to 92 µM | 150 to 210 s⁻¹ | 53 to 125 µM | Increase, relative to W.T., in ratio of rates of rGTP to rATP incorporation [1]: ~2 fold; kcat with dNTPs less than for rNTPs [2]: 2-4 fold; Reduced discrimination between dNTPs and rNTPs compared to wild-type ([2]; from average kcat/Km values): ~20 fold; Kcat ([2]; rITP): 180 to 200 s⁻¹; Km ([2]; rITP): 34 to 94 µM; Relative rate of incorporation GTP/ATP ([3]; Mg^2+ buffer): 338; Relative rate of incorporation GTP/CTP ([3]; Mg^2+ buffer): 550; Relative rate of incorporation GTP/UTP ([3]; Mg^2+ buffer): >1760; Relative rate of incorporation GTP/ATP ([3]; Mn^2+ buffer): 8; Relative rate of incorporation GTP/CTP ([3]; Mn^2+ buffer): 40; Relative rate of incorporation GTP/UTP ([3]; Mn^2+ buffer): 55; Activity on poly(rC) template ([4]; 1 mM GTP): 62 (48-80); Activity on poly(rC) template ([4]; 1 mM dGTP + .5 mM GMP): 116 (90-148); Activity on poly(rC) template [4, 6]: 505 (358-733); Reduction of activity on poly(rC) ([4]; with dGTP): ~8 fold; Reduction of activity on poly(rC) ([4]; with dGTP+rGMP): ~4 fold
W.T.: wild-type T7 RNA polymerase [reference compound] | ~5 fold | >340 | 170 | 121 | 77 | 50 | 21 | about 120 fold | 26 to 29 s⁻¹ | 209 to 262 µM | 6 to 9 s⁻¹ | 2000 to 5000 µM | 9 to 14 s⁻¹ | 4300 to 13500 µM | 5 to 9 s⁻¹ | 602 to 701 µM | 25 to 39 s⁻¹ | 4400 to 9000 µM | 190 to 220 s⁻¹ | 34 to 68 µM | Kcat ([2]; rITP): 170 to 230 s⁻¹; Km ([2]; rITP): 29 to 59 µM; Relative rate of incorporation GTP/ATP ([3]; Mg^2+ buffer): 233; Relative rate of incorporation GTP/CTP ([3]; Mg^2+ buffer): 400; Relative rate of incorporation GTP/ATP ([3]; Mn^2+ buffer): 9.3; Relative rate of incorporation GTP/CTP ([3]; Mn^2+ buffer): 32; Relative rate of incorporation GTP/UTP ([3]; Mn^2+ buffer): 53 (Mn2+)*; Activity on poly(rC) template ([4]; 1 mM GTP): <.5; Activity on poly(rC) template ([4]; 1 mM dGTP + .5 mM GMP): <.5; Activity on poly(rC) template [4, 6]: 1000; Activity on poly(rC) ([4]; dGTP or dGTP+rGMP): not measurably active
